Measurements: patent US12161722B2, “Bifunctional heterocyclic compound having BTK degradation function via ubiquitin proteasome pathway, and use thereof” (KOREA RESEARCH INSTITUTE OF CHEMICAL TECHNOLOGY, priority 2021, dated 2024)

Target: T1, WT BTK protein (Homo sapiens, UniProt Q06187)
T1 construct: measured for intracellular BTK protein levels by Western blotting; endogenous in cells; host or cells: TMD-8 or RAMOS cells
Test: BTK protein degradation assay (Western blotting), WT BTK
Format: cell-based
Details: concentration range accounting for 50% degradation of WT BTK protein, TMD-8 or RAMOS cells, 24 hours
Procedure: TMD-8, RAMOS, or 293T BTK MUT (C481S) cells were treated with the synthesized compounds and measured for intracellular BTK protein levels by Western blotting. The protocol of the experiment using TMD-8 cells is as follows.
TMD-8 cells were resuspended in an RPMI1640 medium (Hyclone, SH30027.01, 10% FBS (Hyclone, SV30207.02), 1% penicillin-streptomycin (Welgene, LS 202-02) and the cell suspension was seeded at a density of 1×10^6 cells/mL in an amount of 1 mL per well into 12-well plates.
The 12-well plates were treated as follows. A 10 mM stock was 1/10 diluted in series with DMSO ([…]) to form final concentrations of 10, 1, 0.1, 0.01, 0.001, and 0.0001 mM. The compounds with such concentrations were applied to cells, followed by harvesting the cells 24 hours later. For a negative control, a 1/10 dilution of DMSO in the medium (3 mL DMSO+27 mL medium) was used.
The 1-mL cell culture in each well was passed many times through a pipette and then transferred into a 1.5-mL microtube before centrifugation (500 g, 5 min, 4° C.). The supernatant was discarded and the cell pellet was washed with PBS. After centrifugation (500 g, 5 min, 4° C.) again, the supernatant was discarded and the cell pellet was taken.
A lysis buffer was prepared as follows. RIPA buffer (Biosesang, RC2038-050-00)+0.5 mM PMSF (SIGMA, P7626)+1×Protease/Phosphatase Inhibitor (Cell signaling, 5872S) was added in an amount […] per well and left for 30 minutes on ice (vortexing at 0 and 30 minutes) before sonication (5 cycles of pulse for 10 seconds and rest for 30 seconds, 70% amplification). The supernatant obtained by centrifugation (15000 g, 15 min, 4° C.) was transferred into a new microtube. Cells in each well of 96-well plates were 1/2 diluted with the RIPA buffer and incubated at 37° C. for 30 minutes with […] of a 50:1 mixture of BCA reagents A and B in BCA Protein Assay Kit (iNtRON, 21071). After being cooled for 10 minutes, the 96-well plates were measured for absorbance at 562 nm on the BioTek, SYNERGY H1 microplate reader. Samples were prepared by protein quantification based on the absorbance measurements and then boiled at 70° C. for 10 minutes. The sample buffer used in the case was prepared by mixing a NuPAGE or a Bolt 4× sample buffer (Invitrogen) and its 10× sample reducing agent depending on the gel to be used, and protein dilution was made in a RIPI buffer.
The samples were loaded in the same amount into a NuPAGE or Bolt Bis-tris 4-12% gradient gel and allowed to run therein (200 V, 35 minutes). The separated proteins were transferred onto a […] NC membrane, using Trans-blot Turbo (BIO-RAD) (1.3 A constant, 25V limit, 15 minutes). The membrane was blocked at room temperature for 1 hour with skim milk or Intercept Blocking Buffer (LI-COR, 927-60001):0.1% TBST=1:1. The membrane was incubated with Anti BTK Rabbit (1:1,000 in 5% skim milk/0.2% TBST, size: 77 kDa, Cell signaling Technology) at 4° C. overnight O/N or at room temperature for 2 hours and with Anti GAPDH Rabbit (1:10,000 in 5% BSA/0.2% TBST, size: 36 kDa, GENETEX) and Anti β-actin mouse (1:10,000 in 5% BSA/0.2% TBST, RT, size: 43 kDa, GENETEX) at room temperature for 1 or 3 hours. Then, the membrane was washed three times with 0.5% TBST for 5 minutes each time before incubation with the second antibody Anti-Rabbit IgG (1:5,000 in 5% Skim milk/TBST, CST), IRDye® 800CW Goat anti-Rabbit IgG Secondary Antibody (1:10,000 in 5% skim/TBST, RT 45 min), or IRDye® 680RD Goat anti-Mouse IgG Secondary Antibody (1:10,000 in 5% skim/TBST, RT 45 min) for 45 minutes at room temperature in a rocker. The membrane was washed five times with 0.5% TBST for 5 minutes in each time, followed by detection with LI-COR, Odyssey. In this regard, the detection proceeded, as it was, for house-keeping genes while using SuperSignal West Pico PLUS Chemiluminescent Substrate or SuperSignal West femto Maximum Sensitivity Substrate for BTK detection. […]

T1 sequence (Q06187 whole entry): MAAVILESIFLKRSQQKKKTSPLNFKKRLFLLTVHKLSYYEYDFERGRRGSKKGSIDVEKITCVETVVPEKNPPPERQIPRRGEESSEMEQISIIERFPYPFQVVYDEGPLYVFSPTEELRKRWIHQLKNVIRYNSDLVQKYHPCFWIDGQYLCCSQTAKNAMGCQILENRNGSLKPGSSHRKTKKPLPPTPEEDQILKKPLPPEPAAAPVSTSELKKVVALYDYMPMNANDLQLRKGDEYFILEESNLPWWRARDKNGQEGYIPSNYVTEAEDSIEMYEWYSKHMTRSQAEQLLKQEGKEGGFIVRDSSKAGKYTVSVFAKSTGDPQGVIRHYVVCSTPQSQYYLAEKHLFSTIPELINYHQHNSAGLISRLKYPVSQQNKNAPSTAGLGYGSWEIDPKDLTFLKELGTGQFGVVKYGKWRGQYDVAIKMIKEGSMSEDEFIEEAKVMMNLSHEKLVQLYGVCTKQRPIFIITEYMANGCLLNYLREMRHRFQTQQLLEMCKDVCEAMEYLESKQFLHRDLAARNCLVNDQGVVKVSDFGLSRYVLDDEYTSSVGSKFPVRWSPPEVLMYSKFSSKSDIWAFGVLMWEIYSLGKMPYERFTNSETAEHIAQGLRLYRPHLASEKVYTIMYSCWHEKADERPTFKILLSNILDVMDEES

| DC50 [nM] | SMILES |
| --- | --- |
| 10 to 1000 | Cc1cccc(C)c1Nc1nn(C)c2nc(Nc3ccc4c(c3)CN(CC3(NC(=O)COc5ccc6c(c5)C(=O)N(C5CCC(=O)NC5=O)C6=O)CC3)CC4)ncc12 (stereo not shown) [Compound 205, N-(1-((7-((3-((2,6-dimethylphenyl)amino)-1-methyl-1H-pyrazolo[3,4-d]pyrimidin-6-yl)amino)-3,4-dihydroisoquinolin-2 (1H)-yl)methyl)cyclopropyl)-2-((2-(2,6-dioxopiperidin-3-yl)-1,3-dioxoisoindolin-5-yl)oxy)acetamide] |
| 0.1 to 10 | Cc1cccc(C)c1Nc1nn(C)c2nc(Nc3ccc4c(c3)CCN(CC3CCN(c5ccc6c(c5)C(=O)N(C5CCC(=O)NC5=O)C6=O)CC3)C4)ncc12 (stereo not shown) [Compound 172, 5-(4-((6-((3-((2,6-Dimethylphenyl)amino)-1-methyl-1H-pyrazolo[3,4-d]pyrimidin-6-yl)amino)-3,4-dihydroisoquinolin-2 (1H)-yl)methyl)piperidin-1-yl)-2-(2,6-dioxopiperidin-3-yl)isoindoline-1,3-dione] |
| 0.1 to 10 | Cc1cccc(C)c1Nc1nn(C)c2nc(Nc3ccc4c(c3)CN(C(=S)C3CCN(C(=O)COc5ccc6c(c5)C(=O)N(C5CCC(=O)NC5=O)C6=O)CC3)CC4)ncc12 (stereo not shown) [Compound 236, 5-(2-(4-(7-((3-((2,6-dimethylphenyl)amino)-1-methyl-1H-pyrazolo[3,4-d]pyrimidin-6-yl)amino)-1,2,3,4-tetrahydroisoquinoline-2-carbonothioyl)piperidin-1-yl)-2-oxoethoxy)-2-(2,6-dioxopiperidin-3-yl)isoindoline-1,3-dione] |
| 0.1 to 10 | Cc1cccc(C)c1Nc1nn(C)c2nc(Nc3ccc4c(c3)CN(C(=S)C3CCN(C(=O)C5CCN(c6ccc7c(c6)C(=O)N(C6CCC(=O)NC6=O)C7=O)CC5)CC3)CC4)ncc12 (stereo not shown) [Compound 234, 5-(4-(4-(7-((3-((2,6-dimethylphenyl)amino)-1-methyl-1H-pyrazolo[3,4-d]pyrimidin-6-yl)amino)-1,2,3,4-tetrahydroisoquinoline-2-carbonothioyl)piperidine-1-carbonyl)piperidin-1-yl)-2-(2,6-dioxopiperidin-3-yl)isoindoline-1,3-dione] |
| 0.1 to 10 | Cc1cccc(C)c1Nc1nn(C)c2nc(Nc3ccc(N4CCN(C[C@H]5CCN(c6ccc7c(c6)C(=O)N(C6CCC(=O)NC6=O)C7=O)C5)CC4)nc3)ncc12 (stereo partly drawn) [Compound 154, 5-((R)-3-((4-(5-((3-((2,6-Dimethylphenyl)amino)-1-methyl-1H-pyrazolo[3,4-d]pyrimidin-6-yl)amino)pyridin-2-yl)piperazin-1-yl)methyl)pyrrolidin-1-yl)-2-(2,6-dioxopiperidin-3-yl)isoindoline-1,3-dione] |
| 0.1 to 10 | Cc1cccc(C)c1Nc1nn(C)c2nc(Nc3ccc(C4CCN(C(=O)/C(C#N)=C/C5CCN(C(=O)CNc6ccc7c(c6)C(=O)N(C6CCC(=O)NC6=O)C7=O)CC5)CC4)cc3)ncc12 (stereo not shown) [Compound 261, (E)-2-(4-(4-((3-((2,6-Dimethylphenyl)amino)-1-methyl-1H-pyrazolo[3,4-d]pyrimidin-6-yl)amino)phenyl)piperidine-1-carbonyl)-3-(1-((2-(2,6-dioxopiperidin-3-yl)-1,3-dioxoisoindolin-5-yl)glycyl)piperidin-4-yl)acrylonitrile] |
| 0.1 to 10 | Cc1cccc(C)c1Nc1nn(C)c2nc(Nc3ccc4c(c3)CN(CC3CN(C(=O)CN5CCN(c6ccc7c(c6)C(=O)N(C6CCC(=O)NC6=O)C7=O)CC5)C3)CC4)ncc12 (stereo not shown) [Compound 39, 5-(4-(2-(3-((7-((3-((2,6-Dimethylphenyl)amino)-1-methyl-1H-pyrazolo[3,4-d]pyrimidin-6-yl)amino)-3,4-dihydroisoquinolin-2 (1H)-yl)methyl)azetidin-1-yl)-2-oxoethyl)piperazin-1-yl)-2-(2,6-dioxopiperidin-3-yl)isoindoline-1,3-dione] |
| 10 to 1000 | Cc1cccc(C)c1Nc1nn(C)c2nc(Nc3ccc4c(c3)CN(C(=O)/C(C#N)=C/C3CCN(C(=O)c5ccc6c(c5)CN(C5CCC(=O)NC5=O)C6=O)CC3)CC4)ncc12 (stereo not shown) [Compound 259, (E)-2-(7-((3-((2,6-Dimethylphenyl)amino)-1-methyl-1H-pyrazolo[3,4-d]pyrimidin-6-yl)amino)-1,2,3,4-tetrahydroisoquinoline-2-carbonyl)-3-(1-(2-(2,6-dioxopiperidin-3-yl)-1-oxoisoindoline-5-carbonyl)piperidin-4-yl)acrylonitrile] |
| 0.1 to 10 | Cc1cccc(C)c1Nc1nn(C)c2nc(Nc3ccc4c(c3)CCN(C[C@@H]3CCN(c5ccc6c(c5)C(=O)N(C5CCC(=O)NC5=O)C6=O)C3)C4)ncc12 (stereo partly drawn) [Compound 174, 5-((S)-3-((6-((3-((2,6-Dimethylphenyl)amino)-1-methyl-1H-pyrazolo[3,4-d]pyrimidin-6-yl)amino)-3,4-dihydroisoquinolin-2 (1H)-yl)methyl)pyrrolidin-1-yl)-2-(2,6-dioxopiperidin-3-yl)isoindoline-1,3-dione] |
| 10 to 1000 | Cc1cccc(C)c1Nc1nn(C)c2nc(Nc3ccc4c(c3)CN(CC3CN(C(=O)COc5ccc6c(c5)C(=O)N(C5CCC(=O)NC5=O)C6=O)C3)CC4)ncc12 (stereo not shown) [Compound 49, 5-(2-(3-((7-((3-((2,6-Dimethylphenyl)amino)-1-methyl-1H-pyrazolo[3,4-d]pyrimidin-6-yl)amino)-3,4-dihydroisoquinolin-2 (1H)-yl)methyl)azetidin-1-yl)-2-oxoethoxy)-2-(2,6-dioxopiperidin-3-yl)isoindoline-1,3-dione] |
| 10 to 1000 | Cc1cccc(C)c1Nc1nn(C)c2nc(Nc3ccc4c(c3)C(C)N(CC3CCN(c5ccc6c(c5)C(=O)N(C5CCC(=O)NC5=O)C6=O)CC3)CC4)ncc12 (stereo not shown) [Compound 75, 5-(4-((7-((3-((2,6-Dimethylphenyl)amino)-1-methyl-1H-pyrazolo[3,4-d]pyrimidin-6-yl)amino)-1-methyl-3,4-dihydroisoquinolin-2 (1H)-yl)methyl)piperidin-1-yl)-2-(2,6-dioxopiperidin-3-yl)isoindoline-1,3-dione] |
| 10 to 1000 | Cc1cccc(C)c1Nc1nn(C)c2nc(Nc3ccc4c(c3)CN(CC(=O)N3CCN(c5ccc6c(c5)C(=O)N(C5CCC(=O)NC5=O)C6=O)CC3)CC4)ncc12 (stereo not shown) [Compound 95, 5-(4-(2-(7-((3-((2,6-dimethylphenyl)amino)-1-methyl-1H-pyrazolo[3,4-d]pyrimidin-6-yl)amino)-3,4-dihydroisoquinolin-2 (1H)-yl)acetyl)piperazin-1-yl)-2-(2,6-dioxopiperidin-3-yl)isoindoline-1,3-dione] |
| 0.1 to 10 | Cc1cccc(C)c1Nc1nn(C)c2nc(Nc3ccc(C4CCN(C(=O)CN5CCN(c6ccc7c(c6)C(=O)N(C6CCC(=O)NC6=O)C7=O)CC5)CC4)cc3)ncc12 (stereo not shown) [Compound 225, 5-(4-(2-(4-(4-((3-((2,6-dimethylphenyl)amino)-1-methyl-1H-pyrazolo[3,4-d]pyrimidin-6-yl)amino)phenyl)piperidin-1-yl)-2-oxoethyl)piperazin-1-yl)-2-(2,6-dioxopiperidin-3-yl)isoindoline-1,3-dione] |
